A short description of data set [1]: In-lab water resistance (% ML465 removed after water exposure). The format is physicochemical. The note with it: for In-lab Water Resistance (% ML465 Removed after Water Exposure (n = 2)): 30% Tributyl acetyl citrate. As to the method: (§1) In-vivo and in-vitro studies were conducted to compare wash-off resistance of formulations prepared with lipophilic solvents and with polymers.
The in-vivo studies of Table 1 were followed with in-vitro studies conducted to assess water resistance of “conventional” solvent systems. Conventional pour-on solvent formulations described below were tested using ML465 as the active under exposure to water for 20 and 40 minutes.
Next, the water resistance of the inventive solvent systems was tested in vitro.

The test system of another data set is horn fly. Kind of data set: in-vivo efficacy studies A and B: pour-on formulations for control of horn fly on cows. The arrangement: species or system Haematobia irritans on cows. The note with it: 30% Tributyl acetyl citrate. As to the method: Although many different actives may work with the formulation of the invention, 1H-pyrazole-3-carbonitrile, 1-[2,6-dichloro-4-(trifluoromethyl)phenyl]-5-methyl-4-[(trifluoromethyl)sulfinyl] (i.e., ML465) is the compound used to test topical formulations for control of horn fly on cows for a duration of one month or longer.
as §1
It can be seen that the amount of ML465 washed off is at, or below, 10% of the applied dose, indicating a sharp decrease upon exposure to water. This was not sufficient to support thirty days efficacy duration. Thus, efficacy may depend on resistance of the solvent system to water exposure.

`Cc1c([S+]([O-])C(F)(F)F)c(C#N)nn1-c1c(Cl)cc(C(F)(F)F)cc1Cl` (stereo not shown) [ML465, 1H-pyrazole-3-carbonitrile, 1-[2,6-dichloro-4-(trifluoromethyl)phenyl]-5-methyl-4-[(trifluoromethyl)sulfinyl]]: the “In-lab Water Resistance (% ML465 Removed after Water Exposure (n = 2))” value in data set [1] (20 min, 5% PPG-15 stearyl ether, 6% Isobutene H25, Soybean Oil) is listed as 5.2%; in data set [1] (20 min, 5% PPG-15 stearyl ether, 10% Isopropyl palmitate, 10% ceteary octanote, 10% butyl stearate, Soybean Oil), 8.8%; in data set [1] (20 min, 5% PPG-15 stearyl ether, Soybean oil), 7.5%; in data set [1] (20 min, Miglyol 840), 2.4%; in data set [1] (40 min, 5% PPG-15 stearyl ether, 6% Isobutene H25, Soybean Oil) it was 7.3%; in data set [1] (40 min, 5% PPG-15 stearyl ether, 10% Isopropyl palmitate, 10% ceteary octanote, 10% butyl stearate, Soybean Oil) it was 9.2%. For the same compound, the “In-lab Water Resistance (% ML465 Removed after Water Exposure (n = 2))” value in data set [1] (40 min, 5% PPG-15 stearyl ether, Soybean oil) amounted to 10.1%; in data set [1] (40 min, Miglyol 840), 5.2%. The “amount of ML465 washed off, % of the applied dose” value in data set [1] (traditional formulations of trials A and B, exposure to water) is reported as not above 10%. Moreover, the “Duration of above 90% efficacy” value is listed as 17 days in the data set on horn fly (study A, 3.0% w/v ML465, Miglyol 840); 17 days with horn fly (study B, 0.5% w/v ML465, 5% Polypropylene Glycol (15) stearyl ether, Soybean Oil); 17 days in the data set with horn fly (study B, 1.0% w/v ML465, 3% Polypropylene Glycol (15) stearyl ether, 8.5% Isopropyl palmitate, 7% Isobutene H25, Soybean Oil); 24 days with horn fly (study B, 1.0% w/v ML465, 3% Polypropylene Glycol (15) stearyl ether, 10% Isopropyl palmitate, 7% cetearyl octanoate, 10% butyl stearate, Soybean Oil).

The values above are taken from patent publication US9756852B2, “Topical delivery formulation” (MERIAL INC., priority 2014, dated 2017).
